System: 556581-035-R-J1-PDC complex spheroid growth
Experiment: Anticancer human tumor 556581-035-R-J1-PDC patient-derived ovarian carcinoma cell line growth inhibition [Asc]
Conditions: for IC50: curve of first compound; for viability, T/C: stronger effect = lower value
Summary of the method: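 Tumor cells were grown as complex spheroids with human endothelial cells (HUVEC) and human mesenchymal stem cells as stroma. Agents were tested alone and in combination, in half-log steps down from the clinical Cmax, or from 10 microM where Cmax was unknown.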

[1] = second compound 0.01 µM, first compound 0.0316 µM
[2] = second compound 0.01 µM, first compound 0.1 µM
[3] = second compound 0.01 µM, first compound 0.316 µM
[4] = second compound 0.01 µM, first compound 1 µM
[5] = second compound 0.01 µM, first compound 3.16 µM
[6] = second compound 0.01 µM, first compound 10 µM
[7] = second compound 0.0316 µM, first compound 0.0316 µM
[8] = second compound 0.0316 µM, first compound 0.1 µM
[9] = second compound 0.0316 µM, first compound 0.316 µM
[10] = second compound 0.0316 µM, first compound 1 µM
[11] = second compound 0.0316 µM, first compound 3.16 µM
[12] = second compound 0.0316 µM, first compound 10 µM
[13] = second compound 0.1 µM, first compound 0.0316 µM
[14] = second compound 0.1 µM, first compound 0.1 µM
[15] = second compound 0.1 µM, first compound 0.316 µM
[16] = second compound 0.1 µM, first compound 1 µM
[17] = second compound 0.1 µM, first compound 3.16 µM
[18] = second compound 0.1 µM, first compound 10 µM
[19] = second compound 0.316 µM, first compound 0.0316 µM
[20] = second compound 0.316 µM, first compound 0.1 µM
[21] = second compound 0.316 µM, first compound 0.316 µM
[22] = second compound 0.316 µM, first compound 1 µM
[23] = second compound 0.316 µM, first compound 3.16 µM
[24] = second compound 0.316 µM, first compound 10 µM
[25] = second compound 1 µM, first compound 0.0316 µM
[26] = second compound 1 µM, first compound 0.1 µM
[27] = second compound 1 µM, first compound 0.316 µM
[28] = second compound 1 µM, first compound 1 µM
[29] = second compound 1 µM, first compound 3.16 µM
[30] = second compound 1 µM, first compound 10 µM
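Also: spheroids exposed to agents for 7 days before viability read.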

For `C=C(F)C(=O)N1CCN(c2nc(OCC3CCCN3C)nc3c2CCN(c2cccc4cccc(Cl)c24)C3)CC1CC#N` (stereo not given) + CNC(C)C(=O)NC1CN(S(=O)(=O)c2cccc(S(=O)(=O)N3CCC4CCC(C(=O)NC(c5ccccc5)c5ccccc5)N4C(=O)C(NC(=O)C(C)NC)C3)c2)CCC2CCC(C(=O)NC(c3ccccc3)c3ccccc3)N2C1=O, the IC50 (second compound 0.01 µM) was 2630 nM, the IC50 (second compound 0.0316 µM) was 1880 nM and the IC50 (second compound 0.1 µM) was 1500 nM. For the same compound, the IC50 (second compound 0.316 µM) was 1070 nM, the IC50 (second compound 1 µM) was 1090 nM and the viability, T/C [1] was 85.3%. It also gave a viability, T/C [2] of 85%, a viability, T/C [3] of 83% and a viability, T/C [4] of 86.6%. It also gave a viability, T/C [5] of 43.2%, a viability, T/C [6] of 0.21% and a viability, T/C [7] of 83.9%. It also gave a viability, T/C [8] of 86.8%, a viability, T/C [9] of 86.5% and a viability, T/C [10] of 72%. The viability, T/C [11] was 31.6%, the viability, T/C [12] was 0.18% and the viability, T/C [13] was 66.5%. The viability, T/C [14] was 77.1%, the viability, T/C [15] was 79.5% and the viability, T/C [16] was 58.4%. For the same compound, the viability, T/C [17] was 29.5%, the viability, T/C [18] was 0.17% and the viability, T/C [19] was 78.7%. For the same compound, the viability, T/C [20] was 75.1%, the viability, T/C [21] was 63.7% and the viability, T/C [22] was 56%. The viability, T/C [23] was 20%, the viability, T/C [24] was 1.79% and the viability, T/C [25] was 66.5%. For the same compound, the viability, T/C [26] was 62.7%, the viability, T/C [27] was 62.3% and the viability, T/C [28] was 52.3%. The viability, T/C [29] was 24.4% and the viability, T/C [30] was 2.63%.
Compound `C=CC(=O)N1CCN(c2nc(=O)n(-c3c(C)ccnc3C(C)C)c3nc(-c4c(O)cccc4F)c(F)cc23)C(C)C1` (stereo not given) + CNC(C)C(=O)NC1CN(S(=O)(=O)c2cccc(S(=O)(=O)N3CCC4CCC(C(=O)NC(c5ccccc5)c5ccccc5)N4C(=O)C(NC(=O)C(C)NC)C3)c2)CCC2CCC(C(=O)NC(c3ccccc3)c3ccccc3)N2C1=O has an IC50 (second compound 0.01 µM) of over 10000 nM, an IC50 (second compound 0.0316 µM) of over 10000 nM and an IC50 (second compound 0.1 µM) of over 10000 nM. The IC50 (second compound 0.316 µM) was over 10000 nM, the IC50 (second compound 1 µM) was over 10000 nM and the viability, T/C [1] was 88.6%. The viability, T/C [2] was 90%, the viability, T/C [3] was 82.4% and the viability, T/C [4] was 101%. The viability, T/C [5] was 103%, the viability, T/C [6] was 86.5% and the viability, T/C [7] was 95%. The viability, T/C [8] was 98%, the viability, T/C [9] was 83% and the viability, T/C [10] was 91.5%. It also gave a viability, T/C [11] of 94.3%, a viability, T/C [12] of 78.8% and a viability, T/C [13] of 98.3%. It also gave a viability, T/C [14] of 81.5%, a viability, T/C [15] of 89.1% and a viability, T/C [16] of 95.3%. It also gave a viability, T/C [17] of 91.3%, a viability, T/C [18] of 100% and a viability, T/C [19] of 92.3%. For the same compound, the viability, T/C [20] was 85.2%, the viability, T/C [21] was 94.2% and the viability, T/C [22] was 79.8%. For the same compound, the viability, T/C [23] was 78.9%, the viability, T/C [24] was 81.4% and the viability, T/C [25] was 79.5%. It also gave a viability, T/C [26] of 71.5%, a viability, T/C [27] of 86.3% and a viability, T/C [28] of 74.8%. For the same compound, the viability, T/C [29] was 87.2% and the viability, T/C [30] was 66.5%.
With `CCN1C(C(=O)NC23CCC(C(=O)O)(CC2)CC3)C(c2cccc(Cl)c2F)C2(C(=O)Nc3cc(Cl)ccc32)C12CCCCC2` (stereo not given) + CNC(C)C(=O)NC1CN(S(=O)(=O)c2cccc(S(=O)(=O)N3CCC4CCC(C(=O)NC(c5ccccc5)c5ccccc5)N4C(=O)C(NC(=O)C(C)NC)C3)c2)CCC2CCC(C(=O)NC(c3ccccc3)c3ccccc3)N2C1=O the IC50 (second compound 0.01 µM) was over 3000 nM, the IC50 (second compound 0.0316 µM) was over 3000 nM and the IC50 (second compound 0.1 µM) was over 3000 nM. The IC50 (second compound 0.316 µM) was over 3000 nM, the IC50 (second compound 1 µM) was over 3000 nM and the viability, T/C (second compound 0.01 µM, first compound 0.00949 µM) was 82.8%. The viability, T/C (second compound 0.01 µM, first compound 0.03 µM) was 98.8%, the viability, T/C (second compound 0.01 µM, first compound 0.0949 µM) was 97.1% and the viability, T/C (second compound 0.01 µM, first compound 0.3 µM) was 86.2%. For the same compound, the viability, T/C (second compound 0.01 µM, first compound 0.949 µM) was 92.2%, the viability, T/C (second compound 0.01 µM, first compound 3 µM) was 86.9% and the viability, T/C (second compound 0.0316 µM, first compound 0.00949 µM) was 83.2%. It also gave a viability, T/C (second compound 0.0316 µM, first compound 0.03 µM) of 85.7%, a viability, T/C (second compound 0.0316 µM, first compound 0.0949 µM) of 82.3% and a viability, T/C (second compound 0.0316 µM, first compound 0.3 µM) of 87.8%. It also gave a viability, T/C (second compound 0.0316 µM, first compound 0.949 µM) of 91.2%, a viability, T/C (second compound 0.0316 µM, first compound 3 µM) of 102% and a viability, T/C (second compound 0.1 µM, first compound 0.00949 µM) of 79%. It also gave a viability, T/C (second compound 0.1 µM, first compound 0.03 µM) of 88.9%, a viability, T/C (second compound 0.1 µM, first compound 0.0949 µM) of 84.3% and a viability, T/C (second compound 0.1 µM, first compound 0.3 µM) of 67.7%. For the same compound, the viability, T/C (second compound 0.1 µM, first compound 0.949 µM) was 90%, the viability, T/C (second compound 0.1 µM, first compound 3 µM) was 90.3% and the viability, T/C (second compound 0.316 µM, first compound 0.00949 µM) was 77.1%. The viability, T/C (second compound 0.316 µM, first compound 0.03 µM) was 78.9%, the viability, T/C (second compound 0.316 µM, first compound 0.0949 µM) was 77.6% and the viability, T/C (second compound 0.316 µM, first compound 0.3 µM) was 84.9%. The viability, T/C (second compound 0.316 µM, first compound 0.949 µM) was 73.4%, the viability, T/C (second compound 0.316 µM, first compound 3 µM) was 69.7% and the viability, T/C (second compound 1 µM, first compound 0.00949 µM) was 71.5%. It also gave a viability, T/C (second compound 1 µM, first compound 0.03 µM) of 72.5%, a viability, T/C (second compound 1 µM, first compound 0.0949 µM) of 65.9% and a viability, T/C (second compound 1 µM, first compound 0.3 µM) of 68.4%. For the same compound, the viability, T/C (second compound 1 µM, first compound 0.949 µM) was 68% and the viability, T/C (second compound 1 µM, first compound 3 µM) was 72.4%.
Compound `COc1c(OCCCN2CCOCC2)ccc2c3n(c(=NC(=O)c4cnc(N)nc4)nc12)CCN3` + CNC(C)C(=O)NC1CN(S(=O)(=O)c2cccc(S(=O)(=O)N3CCC4CCC(C(=O)NC(c5ccccc5)c5ccccc5)N4C(=O)C(NC(=O)C(C)NC)C3)c2)CCC2CCC(C(=O)NC(c3ccccc3)c3ccccc3)N2C1=O has an IC50 (second compound 0.01 µM) of 17.2 nM, an IC50 (second compound 0.0316 µM) of 22 nM and an IC50 (second compound 0.1 µM) of 9.5 nM. The IC50 (second compound 0.316 µM) was 14.5 nM, the IC50 (second compound 1 µM) was 9.84 nM and the viability, T/C (second compound 0.01 µM, first compound 0.00316 µM) was 70.3%. It also gave a viability, T/C (second compound 0.01 µM, first compound 0.01 µM) of 58.8%, a viability, T/C [1] of 37.7% and a viability, T/C [2] of 35.7%. The viability, T/C [3] was 19.1%, the viability, T/C [4] was 12.2% and the viability, T/C (second compound 0.0316 µM, first compound 0.00316 µM) was 64.2%. It also gave a viability, T/C (second compound 0.0316 µM, first compound 0.01 µM) of 58.2%, a viability, T/C [7] of 45.4% and a viability, T/C [8] of 35.5%. For the same compound, the viability, T/C [9] was 22.4%, the viability, T/C [10] was 9.75% and the viability, T/C (second compound 0.1 µM, first compound 0.00316 µM) was 58.6%. It also gave a viability, T/C (second compound 0.1 µM, first compound 0.01 µM) of 49.9%, a viability, T/C [13] of 38.5% and a viability, T/C [14] of 31.6%. The viability, T/C [15] was 19.3%, the viability, T/C [16] was 10.5% and the viability, T/C (second compound 0.316 µM, first compound 0.00316 µM) was 64.6%. For the same compound, the viability, T/C (second compound 0.316 µM, first compound 0.01 µM) was 53.1%, the viability, T/C [19] was 42.4% and the viability, T/C [20] was 27.5%. It also gave a viability, T/C [21] of 16.4%, a viability, T/C [22] of 9.55% and a viability, T/C (second compound 1 µM, first compound 0.00316 µM) of 60.7%. For the same compound, the viability, T/C (second compound 1 µM, first compound 0.01 µM) was 47.1%, the viability, T/C [25] was 40.9% and the viability, T/C [26] was 27.3%. For the same compound, the viability, T/C [27] was 14.9% and the viability, T/C [28] was 7.78%.

From PubChem BioAssay AID1963450 (Molecular Pharmacology Branch, DTP, NCI, 2024)
